Test [1] concerns ENR+CD organoids. Put plainly: Primary screen: ATP (CellTiter-Glo 3D, CTG) cell number/viability, 2.5-D 384-well ENR+CD organoids.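 On all read-outs here: compounds given at plating and again on day 3 over a 6-day differentiation from ENR+CV stem-cell-enriched precursors, ATP measured on day 6, plate median as control.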 The following applies: primary screen; for Z.CTG: standard z score. (ATP-based viability assays read luminescence as a measure of living cells.)
For test [2], the system named is ENR+CD organoids (ISC to Paneth cell differentiation). Put plainly: Primary screen: basal (non-stimulated) lysozyme secretion LYZ.NS, 2.5-D 384-well ENR+CD organoid differentiation. It counts as cell-based, mouse. Conditions: primary screen; for Z.LYZ.NS: standard z score. From the text: (§1) High-throughput screening.
The test system is the same in test [3]. Put plainly: Primary screen: CCh-stimulated lysozyme secretion LYZ.S, 2.5-D 384-well ENR+CD organoid differentiation. The following applies: primary screen. It counts as cell-based, mouse.
From the text: as §1

[4] abbreviates: dose 0.08 uM, FC vs plate median.
The mark [5] stands for this setting: dose 0.40 uM, FC vs plate median.
The mark [6] stands for this setting: dose 2.00 uM, FC vs plate median.
Where [7] appears, read: dose 10.00 uM, FC vs plate median.
The mark [8] stands for this setting: dose 0.08 uM, FC relative to plate median.
The mark [9] stands for this setting: dose 0.40 uM, FC relative to plate median.
Setting [10] is: dose 2.00 uM, FC relative to plate median.
Setting [11] is: dose 10.00 uM, FC relative to plate median.

Experimental findings from US20220323406A1, “METHODS AND COMPOSITIONS FOR DIFFERENTIATING STEM CELLS” (Massachusetts Institute of Technology, priority 2019, published 2022) are described below.

Where a name gives a salt, the structure may show the parent alone.

`Oc1ncnc2[nH]ncc12` [Allopurinol]: the Dose.FC.CTG in test [1] (dose 0.08 uM) is 0.212 log2 fold change; in test [1] (dose 0.40 uM) it was −0.098 log2 fold change; in test [1] (dose 2.00 uM), −0.162 log2 fold change; in test [1] (dose 10.00 uM) it was −0.454 log2 fold change. Moreover, the Dose.FC.LYZ.NS is recorded as 0.019 log2 fold change in test [2] (dose 0.08 uM), −0.036 log2 fold change in test [2] (dose 0.40 uM), −0.004 log2 fold change in test [2] (dose 2.00 uM) and −0.051 log2 fold change in test [2] (dose 10.00 uM). In addition, the “Z.LYZ.NS (standard z score)” value was 0.168 in test [2] (dose 0.08 uM), −0.314 in test [2] (dose 0.40 uM), −0.036 in test [2] (dose 2.00 uM) and −0.442 in test [2] (dose 10.00 uM). Moreover, the Dose.FC.LYZ.S in test [3] (dose 0.08 uM) is given as 0.026 log2 fold change; in test [3] (dose 0.40 uM) it was −0.086 log2 fold change; in test [3] (dose 2.00 uM), −0.064 log2 fold change; in test [3] (dose 10.00 uM) it was −0.119 log2 fold change.

As for `C#Cc1cccc(Nc2ncnc3cc4c(cc23)OCCOCCOCCO4)c1` [Icotinib], the “Dose.FC.CTG (log2 fold change)” value is reported as −0.020 in test [1] (dose 0.08 uM), −0.061 in test [1] (dose 0.40 uM), −0.406 in test [1] (dose 2.00 uM) and −1.068 in test [1] (dose 10.00 uM). Further, the “Dose.FC.LYZ.NS (log2 fold change)” value in test [2] (dose 0.08 uM) was 0.029; in test [2] (dose 0.40 uM), −0.073; in test [2] (dose 2.00 uM), −0.133; in test [2] (dose 10.00 uM) it was −0.289. Besides, the “Z.LYZ.NS (standard z score)” value is recorded as 0.255 in test [2] (dose 0.08 uM), −0.632 in test [2] (dose 0.40 uM), −1.160 in test [2] (dose 2.00 uM) and −2.518 in test [2] (dose 10.00 uM). In addition, the “Dose.FC.LYZ.S (log2 fold change)” value in test [3] (dose 0.08 uM) is reported as 0.094; in test [3] (dose 0.40 uM), −0.090; in test [3] (dose 2.00 uM) it was −0.243; in test [3] (dose 10.00 uM), −0.419.

As to `Cc1cc(Nc2cc(CN3CCOCC3)c3nc(C)c(Cc4ccc(Cl)cc4F)n3n2)n[nH]1` [LY2784544], the “Dose.FC.CTG (log2 fold change)” value in test [1] (dose 0.08 uM) is on record as 0.108; in test [1] (dose 0.40 uM), 0.062; in test [1] (dose 2.00 uM) it was 0.181; in test [1] (dose 10.00 uM), −0.831. Further, the “Z.CTG (standard z score)” value in test [1] (dose 0.08 uM) was 0.259; in test [1] (dose 0.40 uM), 0.148; in test [1] (dose 2.00 uM), 0.433; in test [1] (dose 10.00 uM), −1.984. Also, the “Dose.FC.LYZ.NS (log2 fold change)” value in test [2] (dose 0.08 uM) is 0.132; in test [2] (dose 0.40 uM), 0.004; in test [2] (dose 2.00 uM), 0.068; in test [2] (dose 10.00 uM) it was −0.280. Moreover, the “Z.LYZ.NS (standard z score)” value is listed as 1.152 in test [2] (dose 0.08 uM), 0.033 in test [2] (dose 0.40 uM), 0.591 in test [2] (dose 2.00 uM) and −2.439 in test [2] (dose 10.00 uM). Further, the “Dose.FC.LYZ.S (log2 fold change)” value in test [3] (dose 0.08 uM) is on record as 0.123; in test [3] (dose 0.40 uM), 0.077; in test [3] (dose 2.00 uM) it was 0.114; in test [3] (dose 10.00 uM) it was −0.367.

Take `CCN(CC)C(=O)c1ccc(C2=CC3(CCNCC3)Oc3cccc(O)c32)cc1` [ADL5859 HCl]: the Dose.FC.CTG is given as 0.270 log2 fold change in test [1] (dose 0.08 uM), 0.163 log2 fold change in test [1] (dose 0.40 uM), 0.291 log2 fold change in test [1] (dose 2.00 uM) and 0.194 log2 fold change in test [1] (dose 10.00 uM). The Dose.FC.LYZ.NS is 0.053 log2 fold change in test [2] (dose 0.08 uM), 0.019 log2 fold change in test [2] (dose 0.40 uM), 0.066 log2 fold change in test [2] (dose 2.00 uM) and −0.056 log2 fold change in test [2] (dose 10.00 uM). In addition, the “Z.LYZ.NS (standard z score)” value in test [2] (dose 0.08 uM) is listed as 0.458; in test [2] (dose 0.40 uM) it was 0.163; in test [2] (dose 2.00 uM), 0.571; in test [2] (dose 10.00 uM) it was −0.488. The Dose.FC.LYZ.S in test [3] (dose 0.08 uM) was 0.079 log2 fold change; in test [3] (dose 0.40 uM), 0.104 log2 fold change; in test [3] (dose 2.00 uM) it was 0.070 log2 fold change; in test [3] (dose 10.00 uM) it was −0.040 log2 fold change.

With `CCc1c(C(=O)NCCc2ccc(N3CCCCC3)cc2)[nH]c2ccc(Cl)cc12` [Org 27569], the Z.CTG in test [1] (dose 0.08 uM) is 0.663; in test [1] (dose 0.40 uM), 0.173; in test [1] (dose 2.00 uM) it was 0.865; in test [1] (dose 10.00 uM) it was 0.646. Also, the Dose.FC.CTG in test [1] (setting [4]) came out at 0.278 log2 fold change; in test [1] (setting [5]), 0.072 log2 fold change; in test [1] (setting [6]) it was 0.362 log2 fold change; in test [1] (setting [7]), 0.270 log2 fold change. Besides, the Z.LYZ.NS is 1.060 in test [2] (dose 0.08 uM), 0.445 in test [2] (dose 0.40 uM), 0.683 in test [2] (dose 2.00 uM) and 0.248 in test [2] (dose 10.00 uM). Moreover, the Dose.FC.LYZ.NS in test [2] (setting [4]) worked out at 0.122 log2 fold change; in test [2] (setting [5]), 0.051 log2 fold change; in test [2] (setting [6]), 0.078 log2 fold change; in test [2] (setting [7]), 0.029 log2 fold change. Moreover, the Dose.FC.LYZ.S in test [3] (setting [4]) stood at 0.174 log2 fold change; in test [3] (setting [5]), 0.032 log2 fold change; in test [3] (setting [6]) it was 0.059 log2 fold change; in test [3] (setting [7]), 0.001 log2 fold change.

On to `CC(=O)O[C@H]1C[C@@H]2CC[C@@H]3[C@H](CC[C@@]4(C)[C@H]3C[C@H]([N+]3(C)CCCCC3)[C@@H]4OC(C)=O)[C@@]2(C)C[C@@H]1[N+]1(C)CCCCC1.[Br-].[Br-]` [Pancuronium dibromide], for which the Z.CTG in test [1] (dose 0.08 uM) is listed as 0.519; in test [1] (dose 0.40 uM), 0.541; in test [1] (dose 2.00 uM), −0.029; in test [1] (dose 10.00 uM) it was 0.148. Besides, the Dose.FC.CTG is reported as 0.217 log2 fold change in test [1] (setting [4]), 0.226 log2 fold change in test [1] (setting [5]), −0.012 log2 fold change in test [1] (setting [6]) and 0.062 log2 fold change in test [1] (setting [7]). Besides, the Z.LYZ.NS in test [2] (dose 0.08 uM) was determined as 1.118; in test [2] (dose 0.40 uM) it was 0.406; in test [2] (dose 2.00 uM), 0.806; in test [2] (dose 10.00 uM), 0.302. Moreover, the Dose.FC.LYZ.NS in test [2] (setting [4]) was determined as 0.128 log2 fold change; in test [2] (setting [5]), 0.047 log2 fold change; in test [2] (setting [6]) it was 0.093 log2 fold change; in test [2] (setting [7]), 0.035 log2 fold change. The Dose.FC.LYZ.S in test [3] (setting [4]) turned out to be 0.213 log2 fold change; in test [3] (setting [5]), 0.094 log2 fold change; in test [3] (setting [6]), 0.099 log2 fold change; in test [3] (setting [7]), 0.004 log2 fold change.

Consider `O=C(NNc1nc2cc(F)ccc2n2cccc12)c1cnccn1` [SC144], for which the Dose.FC.CTG in test [1] (setting [8]) is reported as 0.160 log2 fold change; in test [1] (setting [9]) it was 0.129 log2 fold change; in test [1] (setting [10]), −0.257 log2 fold change; in test [1] (setting [11]), −0.885 log2 fold change. For the same compound, the Z.CTG is 0.381 in test [1] (dose 0.08 uM), 0.309 in test [1] (dose 0.40 uM), −0.613 in test [1] (dose 2.00 uM) and −2.113 in test [1] (dose 10.00 uM). Moreover, the Dose.FC.LYZ.NS is given as 0.067 log2 fold change in test [2] (setting [8]), −0.013 log2 fold change in test [2] (setting [9]), −0.025 log2 fold change in test [2] (setting [10]) and −0.156 log2 fold change in test [2] (setting [11]). Besides, the Z.LYZ.NS in test [2] (dose 0.08 uM) is recorded as 0.582; in test [2] (dose 0.40 uM), −0.112; in test [2] (dose 2.00 uM), −0.220; in test [2] (dose 10.00 uM), −1.355. The Dose.FC.LYZ.S in test [3] (setting [8]) is on record as 0.098 log2 fold change; in test [3] (setting [9]) it was 0.014 log2 fold change; in test [3] (setting [10]) it was −0.131 log2 fold change; in test [3] (setting [11]) it was −0.211 log2 fold change.

Consider `O=c1ncn2nc(Sc3ccc(F)cc3F)ccc2c1-c1c(Cl)cccc1Cl` [VX-745], for which the Dose.FC.CTG stood at 0.186 log2 fold change in test [1] (dose 0.08 uM), 0.146 log2 fold change in test [1] (dose 0.40 uM), 0.018 log2 fold change in test [1] (dose 2.00 uM) and 0.022 log2 fold change in test [1] (dose 10.00 uM). For the same compound, the Dose.FC.LYZ.NS is recorded as 0.092 log2 fold change in test [2] (dose 0.08 uM), 0.004 log2 fold change in test [2] (dose 0.40 uM), 0.021 log2 fold change in test [2] (dose 2.00 uM) and −0.006 log2 fold change in test [2] (dose 10.00 uM). Moreover, the “Z.LYZ.NS (standard z score)” value in test [2] (dose 0.08 uM) is given as 0.805; in test [2] (dose 0.40 uM), 0.031; in test [2] (dose 2.00 uM), 0.186; in test [2] (dose 10.00 uM) it was −0.049. Also, the Dose.FC.LYZ.S in test [3] (dose 0.08 uM) came out at 0.154 log2 fold change; in test [3] (dose 0.40 uM), 0.054 log2 fold change; in test [3] (dose 2.00 uM), 0.058 log2 fold change; in test [3] (dose 10.00 uM), 0.038 log2 fold change.
